PubChem BioAssay (NCI)
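GI50 marks 50% less growth. TGI: concentration producing complete growth inhibition.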

Columns and labels:
Assay in all cases: inhibition of tumour cell growth, NCI panel, 384-well format
PC-3 prostate = test system: PC-3 prostate
MDA-MB-468 breast = test system: MDA-MB-468 breast
SK-MEL-5 melanoma = test system: SK-MEL-5 melanoma
HS 578T breast = test system: HS 578T breast
HCT-15 colon = test system: HCT-15 colon
NCI-H23 lung = test system: NCI-H23 lung
TK-10 renal = test system: TK-10 renal
A549 NSCLC = test system: A549 NSCLC
OVCAR-5 ovarian = test system: OVCAR-5 ovarian
EKVX NSCLC = test system: EKVX NSCLC
HL-60(TB) leukemia = test system: HL-60(TB) leukemia
OVCAR-3 ovarian = test system: OVCAR-3 ovarian
MALME-3M melanoma = test system: MALME-3M melanoma
A498 renal = test system: A498 renal
HCT-116 colon = test system: HCT-116 colon
M14 melanoma = test system: M14 melanoma
HOP-92 NSCLC = test system: HOP-92 NSCLC
T-47D breast = test system: T-47D breast
CAKI-1 renal = test system: CAKI-1 renal
OVCAR-8 ovarian = test system: OVCAR-8 ovarian
HOP-62 NSCLC = test system: HOP-62 NSCLC
SF-295 CNS = test system: SF-295 CNS
UACC-257 melanoma = test system: UACC-257 melanoma
RPMI-8226 leukemia = test system: RPMI-8226 leukemia
SK-OV-3 ovarian = test system: SK-OV-3 ovarian
NCI-H322M lung = test system: NCI-H322M lung
786-0 renal = test system: 786-0 renal
HCC-2998 colon = test system: HCC-2998 colon
NCI-H460 NSCLC = test system: NCI-H460 NSCLC
UO-31 renal = test system: UO-31 renal
NCI/ADR-RES ovarian = test system: NCI/ADR-RES ovarian
SW-620 colon = test system: SW-620 colon
SNB-19 CNS = test system: SNB-19 CNS
DU-145 prostate = test system: DU-145 prostate
RXF 393 renal = test system: RXF 393 renal
SK-MEL-28 melanoma = test system: SK-MEL-28 melanoma
SF-539 CNS = test system: SF-539 CNS
K-562 leukemia = test system: K-562 leukemia
KM12 colon = test system: KM12 colon
CCRF-CEM leukemia = test system: CCRF-CEM leukemia
OVCAR-4 ovarian = test system: OVCAR-4 ovarian
SNB-75 CNS = test system: SNB-75 CNS
U251 glioblastoma = test system: U251 glioblastoma
BT-549 breast = test system: BT-549 breast
LOX IMVI melanoma = test system: LOX IMVI melanoma
NCI-H226 lung = test system: NCI-H226 lung
ACHN renal = test system: ACHN renal
SF-268 CNS = test system: SF-268 CNS
IGROV1 ovarian = test system: IGROV1 ovarian
NCI-H522 lung = test system: NCI-H522 lung
MOLT-4 leukemia = test system: MOLT-4 leukemia
UACC-62 melanoma = test system: UACC-62 melanoma
HT29 colon = test system: HT29 colon
SN12C renal = test system: SN12C renal
COLO 205 colon = test system: COLO 205 colon
MCF7 breast = test system: MCF7 breast
MDA-MB-435 melanoma = test system: MDA-MB-435 melanoma
MDA-MB-231 breast = test system: MDA-MB-231 breast

SMILES: CN[C@@H](C)C(=O)N[C@H]1CN(C(=O)CC(C)C)CC[C@H]2CC[C@@H](C(=O)NC(c3ccccc3)c3ccccc3)N2C1=O
- GI50 (PC-3 prostate): > 100 µM
- TGI (PC-3 prostate): > 100 µM
- GI50 (MDA-MB-468 breast): 2.78 µM
- TGI (MDA-MB-468 breast): 72.1 µM
- GI50 (SK-MEL-5 melanoma): 3.63 µM
- TGI (SK-MEL-5 melanoma): 21.8 µM
- GI50 (HS 578T breast): 16.4 µM
- TGI (HS 578T breast): > 100 µM
- GI50 (HCT-15 colon): > 100 µM
- TGI (HCT-15 colon): > 100 µM
- GI50 (NCI-H23 lung): 49 µM
- TGI (NCI-H23 lung): > 100 µM
- GI50 (TK-10 renal): > 100 µM
- TGI (TK-10 renal): > 100 µM
- GI50 (A549 NSCLC): > 100 µM
- TGI (A549 NSCLC): > 100 µM
- GI50 (OVCAR-5 ovarian): > 100 µM
- TGI (OVCAR-5 ovarian): > 100 µM
- GI50 (EKVX NSCLC): > 100 µM
- TGI (EKVX NSCLC): > 100 µM
- GI50 (HL-60(TB) leukemia): 1.56 µM
- TGI (HL-60(TB) leukemia): 12.1 µM
- GI50 (OVCAR-3 ovarian): > 100 µM
- TGI (OVCAR-3 ovarian): > 100 µM
- GI50 (MALME-3M melanoma): 0.542 µM
- TGI (MALME-3M melanoma): 11 µM
- GI50 (A498 renal): > 100 µM
- TGI (A498 renal): > 100 µM
- GI50 (HCT-116 colon): > 100 µM
- TGI (HCT-116 colon): > 100 µM
- GI50 (M14 melanoma): > 100 µM
- TGI (M14 melanoma): > 100 µM
- GI50 (HOP-92 NSCLC): 13.8 µM
- TGI (HOP-92 NSCLC): 50.7 µM
- GI50 (T-47D breast): > 100 µM
- TGI (T-47D breast): > 100 µM
- GI50 (CAKI-1 renal): > 100 µM
- TGI (CAKI-1 renal): > 100 µM
- GI50 (OVCAR-8 ovarian): 68.8 µM
- TGI (OVCAR-8 ovarian): > 100 µM
- GI50 (HOP-62 NSCLC): 4.4 µM
- TGI (HOP-62 NSCLC): > 100 µM
- GI50 (SF-295 CNS): > 100 µM
- TGI (SF-295 CNS): > 100 µM
- GI50 (UACC-257 melanoma): 24.7 µM
- TGI (UACC-257 melanoma): 55 µM
- GI50 (RPMI-8226 leukemia): 24.4 µM
- TGI (RPMI-8226 leukemia): > 100 µM
- GI50 (SK-OV-3 ovarian): 0.357 µM
- TGI (SK-OV-3 ovarian): 9.16 µM
- GI50 (NCI-H322M lung): > 100 µM
- TGI (NCI-H322M lung): > 100 µM
- GI50 ([…]-0 renal): > 100 µM
- TGI (786-0 renal): > 100 µM
- GI50 (HCC-2998 colon): 12.5 µM
- TGI (HCC-2998 colon): > 100 µM
- GI50 (NCI-H460 NSCLC): > 100 µM
- TGI (NCI-H460 NSCLC): > 100 µM
- GI50 (UO-31 renal): > 100 µM
- TGI (UO-31 renal): > 100 µM
- GI50 (NCI/ADR-RES ovarian): > 100 µM
- TGI (NCI/ADR-RES ovarian): > 100 µM
- GI50 (SW-620 colon): > 100 µM
- TGI (SW-620 colon): > 100 µM
- GI50 (SNB-19 CNS): > 100 µM
- TGI (SNB-19 CNS): > 100 µM
- GI50 (DU-145 prostate): > 100 µM
- TGI (DU-145 prostate): > 100 µM
- GI50 (RXF 393 renal): 0.823 µM
- TGI (RXF 393 renal): 20 µM
- GI50 (SK-MEL-28 melanoma): > 100 µM
- TGI (SK-MEL-28 melanoma): > 100 µM
- GI50 (SF-539 CNS): > 100 µM
- TGI (SF-539 CNS): > 100 µM
- GI50 (K-562 leukemia): 56.6 µM
- TGI (K-562 leukemia): > 100 µM
- GI50 (KM12 colon): > 100 µM
- TGI (KM12 colon): > 100 µM
- GI50 (CCRF-CEM leukemia): 15.8 µM
- TGI (CCRF-CEM leukemia): > 100 µM
- GI50 (OVCAR-4 ovarian): 0.167 µM
- TGI (OVCAR-4 ovarian): 1.05 µM
- GI50 (SNB-75 CNS): 49.9 µM
- TGI (SNB-75 CNS): > 100 µM
- GI50 (U251 glioblastoma): > 100 µM
- TGI (U251 glioblastoma): > 100 µM
- GI50 (BT-549 breast): 21.8 µM
- TGI (BT-549 breast): > 100 µM
- GI50 (LOX IMVI melanoma): > 100 µM
- TGI (LOX IMVI melanoma): > 100 µM
- GI50 (NCI-H226 lung): > 100 µM
- TGI (NCI-H226 lung): > 100 µM
- GI50 (ACHN renal): > 100 µM
- TGI (ACHN renal): > 100 µM
- GI50 (SF-268 CNS): > 100 µM
- TGI (SF-268 CNS): > 100 µM
- GI50 (IGROV1 ovarian): > 100 µM
- TGI (IGROV1 ovarian): > 100 µM
- GI50 (NCI-H522 lung): 5.58 µM
- TGI (NCI-H522 lung): > 100 µM
- GI50 (MOLT-4 leukemia): 35.1 µM
- TGI (MOLT-4 leukemia): > 100 µM
- GI50 (UACC-62 melanoma): > 100 µM
- TGI (UACC-62 melanoma): > 100 µM
- GI50 (HT29 colon): 39.8 µM
- TGI (HT29 colon): > 100 µM
- GI50 (SN12C renal): > 100 µM
- TGI (SN12C renal): > 100 µM
- GI50 (COLO 205 colon): > 100 µM
- TGI (COLO 205 colon): > 100 µM
- GI50 (MCF7 breast): 83.8 µM
- TGI (MCF7 breast): > 100 µM

SMILES: Cc1cccc(-c2nn3c(c2-c2ccnc4ccc(C(N)=O)cc24)CCC3)n1
- GI50 (PC-3 prostate): 3.64 µM
- TGI (PC-3 prostate): 11.8 µM
- GI50 (MDA-MB-435 melanoma): 1.95 µM
- TGI (MDA-MB-435 melanoma): 3.83 µM
- GI50 (SK-MEL-5 melanoma): 2.55 µM
- TGI (SK-MEL-5 melanoma): 6.56 µM
- GI50 (HS 578T breast): 1.74 µM
- TGI (HS 578T breast): 3.65 µM
- GI50 (HCT-15 colon): 2.97 µM
- TGI (HCT-15 colon): 10.6 µM
- GI50 (MDA-MB-231 breast): 4.81 µM
- TGI (MDA-MB-231 breast): 16.6 µM
- GI50 (A549 NSCLC): 3.93 µM
- TGI (A549 NSCLC): 14.3 µM
- GI50 (EKVX NSCLC): 3.92 µM
- TGI (EKVX NSCLC): 12.8 µM
- GI50 (HL-60(TB) leukemia): 2.08 µM
- TGI (HL-60(TB) leukemia): 3.57 µM
- GI50 (OVCAR-3 ovarian): 2.15 µM
- TGI (OVCAR-3 ovarian): 3.96 µM
- GI50 (MALME-3M melanoma): 5.57 µM
- TGI (MALME-3M melanoma): 16.4 µM
- GI50 (A498 renal): 3.34 µM
- TGI (A498 renal): 12 µM
- GI50 (HCT-116 colon): 3.65 µM
- TGI (HCT-116 colon): 12.3 µM
- GI50 (T-47D breast): 3.64 µM
- TGI (T-47D breast): 16.8 µM
- GI50 (CAKI-1 renal): 3.9 µM
- TGI (CAKI-1 renal): 14.1 µM
- GI50 (UACC-257 melanoma): 6.22 µM
- TGI (UACC-257 melanoma): 19.7 µM
- GI50 (RPMI-8226 leukemia): 1.74 µM
- TGI (RPMI-8226 leukemia): 3.13 µM
- GI50 (SK-OV-3 ovarian): 3.17 µM
- TGI (SK-OV-3 ovarian): 10.4 µM
- GI50 (NCI-H322M lung): 3.86 µM
- TGI (NCI-H322M lung): 16.6 µM
- GI50 (HCC-2998 colon): 3.78 µM
- TGI (HCC-2998 colon): 13.2 µM
- GI50 (NCI-H460 NSCLC): 2.37 µM
- TGI (NCI-H460 NSCLC): 5.92 µM
- GI50 (NCI/ADR-RES ovarian): 2.17 µM
- TGI (NCI/ADR-RES ovarian): 4.48 µM
- GI50 (SW-620 colon): 5.1 µM
- TGI (SW-620 colon): 15.6 µM
- GI50 (RXF 393 renal): 2.02 µM
- TGI (RXF 393 renal): 4.6 µM
- GI50 (SK-MEL-28 melanoma): 6.9 µM
- TGI (SK-MEL-28 melanoma): 19.7 µM
- GI50 (SF-539 CNS): 2.44 µM
- TGI (SF-539 CNS): 5.39 µM
- GI50 (KM12 colon): 2.47 µM
- TGI (KM12 colon): 6.04 µM
- GI50 (SNB-75 CNS): 2.52 µM
- TGI (SNB-75 CNS): 11.3 µM
- GI50 (U251 glioblastoma): 2.65 µM
- TGI (U251 glioblastoma): 8.58 µM
- GI50 (BT-549 breast): 2.41 µM
- TGI (BT-549 breast): 5.7 µM
- GI50 (LOX IMVI melanoma): 2.77 µM
- TGI (LOX IMVI melanoma): 7.47 µM
- GI50 (SF-268 CNS): 3.05 µM
- TGI (SF-268 CNS): 9.5 µM
- GI50 (NCI-H522 lung): 1.8 µM
- TGI (NCI-H522 lung): 4.1 µM
- GI50 (HT29 colon): 2.37 µM
- TGI (HT29 colon): 6.01 µM
